# According to US20140086881A1, “GOOD HEALTHY CELLS FOUND IN PROTEINS, THEIR APPLICATIONS, AND PROCESS OF MAKING A MEDIUM TO HARVEST THE CELLS” (priority 2012, published 2014):
# Read-outs that look alike come from different tables or passages of the source.
# Experiments:
# [1] = system: Adjuvant-Induced Arthritis (AIA); assay: Adjuvant-Induced Arthritis (AIA) in Lewis rats; conditions: 35 days and 45 days treatment sections
# HBV = HBV mouse hydrodynamic injection (HDI) model; format: in vivo, BALB/c mice; conditions: therapeutically-treated mice, from day 3 post HDI to the end
# From the text: Hydrodynamic injection (HDI) is an in vivo gene delivery technology. It refers to transiently transfect the mouse liver cells with a foreign gene via tail vein injection of a large volume saline containing plasmid within a few seconds. Taking the advantage of the liver-targeting manner of hydrodynamic injection, a single hydrodynamic injection of a replication-competent HBV DNA, could result in HBV replication in mouse liver shortly. This HBV hydrodynamic injection model on immunocompetent mice is a convenient and reproducible animal model for anti-HBV compound screening in vivo, which has been successfully established in WuXi ID department.
# • 3.1 Hydrodynamic injection and compound administration • 3.1.1. From day −7 to day 0, all 5 mice in group 4 were administrated i.p./i.v. with test article daily for 8 days according to Table 14.2. • 3.1.2. On day 0, all groups of mice were hydrodynamicly injected via tail vein with pcDNA3.1/HBV plasmid DNA in a volume of normal saline equal to 8% of a mouse body weight. […]
# • 3.2.1.1 Isolate DNA from 50 μl plasma using QIAamp 96 DNA Blood Kit. […] Run qPCR for HBV DNA quantification. a) Dilute HBV plasmid standard by 10-fold from 10^7 copies/μl to 10 copies/μl. b) Prepare qPCR mix as shown below. […]
# HBV DNA quantity=DNA determined by HBV primer-DNA determined by plasmid primer. […]
# HBV in HepG2.2.15 = assay: Anti-HBV potency in stable HBV cell line (HBV DNA real time PCR); format: cell-based; conditions: Hepatitis B virus
# Method: Lamivudine is diluted with 3-fold for 9 concentrations.
# i) Cell culture medium: RPM 1640-4% FBS-1% Pen/Strep-1% Glutamine ii) HepG2.2.15 cell culture: Grow the cells in T75 flask. Incubated at 37° C., 95% humidity, 5% CO2.
# f) Refresh protein-containing medium on day 3 of drug treatment. g) Collect culture media from the HepG2.2.15 plates on day 6 followed by HBV DNA extraction using QIAamp 96 DNA Blood Kit (QIAGEN #51161). 2) Real time PCR for HBV DNA quantification. a) Dilute HBV plasmid standard by 10-fold from 0.1 ng/ul to 0.000001 ng/ul. b) Prepare realtime PCR mix as shown blow.
# c) Add 15 ul/well PCR mix to 96-well optical reaction plates. d) Add 10 ul of the diluted plasmid standard to C12-H12. […]
# 3) Data analysis: A standard curve is generated by plotting Ct value vs. the amount of the HBV plasmid standard, and the quantity of each sample is estimated based on the Ct value projection on the standard curve; percent of HBV inhibition by protein or compound is calculated using the following equation: % Inh.=[1−(HBV quantity of sample−HBV quantity of HepG2 control)/(HBV quantity of 0% Inhibition control−HBV quantity of HepG2 control)]*100.
# HCV 2a replicon = assay: microbe, parasite or virus in culture; format: cell-based; conditions: Hepatitis C virus, read-out: EC50 (uM) 2a
# Method: (§1) The cells are counted using hemocytometer.
# (§2) Incubate plate at 5% CO2, 37° C. for 4 hours.
# (§3) Dose-response curves are plotted using Prism.
# HCV 1b replicon = assay: microbe, parasite or virus in culture; format: cell-based; conditions: Hepatitis C virus, read-out: EC50 (uM) 1b
# Method: as §1, §2, §3
# HCV 1a replicon = assay: microbe, parasite or virus in culture; format: cell-based; conditions: Hepatitis C virus, read-out: EC50 (uM) 1a
# Method: as §1, §2, §3
# atherosclerotic model = conditions: for Animal Wounded, Total: n = 10, reason: fighting each other; for Animal Dead, Total: n = 10 ApoE ko mice, high fat diet
# From the text: 10 ApoE ko mice were fed with regular chow diet and used as negative control group. 50 ApoE ko mice were fed with high fat diet (35% kcal fat, 1% cholesterol) for 8 weeks, and then the plasma samples were collected for lipid profile measurement before the treatment. 50 ApoE ko mice were assigned into 5 groups based on the fasting overnight plasma TC and HDL level.
# • 23 Dec. 2011: 60 ApoE mice arrived at chempartner and were housed in the animal facility in the building #3 for the acclimation. • 6 Jan. 2012: Measured the body weight for each mouse. 50 mice were fed with high fat diet and 10 mice were fed with normal chow diet. • 2 Mar. 2012: All mice were fasted over night and plasma samples (about 300 ul whole blood) were collected for lipid profile measurement before treatment with RAAS antibody. • 19 Mar. 2012 to 6 Apr. […] 2012: All mice were fasted over night and plasma sample for each mouse (about 300 ul whole blood) was collected for lipid profile measurement after 16 weeks treatment. Blood glucose was also measured for each mouse. • 9 Jul. 2012: The study was terminated after 16 weeks treatment. Measure BW, sacrificed each mouse, dissected the aorta, heart, liver and kidney and fixed them in 4% PFA.
# Antibody products were administrated by intraperitoneal injection every two days (Monday, Wednesday, and Friday). and the positive compound was administered by p.o every day.
# The body weight was weighed weekly during the period of treatment.
# The fasting overnight blood glucose was measured at the end of study by Roche glucometer.
# About 300 ul of blood sample was collected from the orbital vein for each mouse and centrifuged at 7000 rpm for 5 min at 4° C. and the plasma lipid profile was measured by Roche Modular automatic biochemistry analyzer in DaAn Medical Laboratory
# After RAAS antibody products treatment for 16 weeks, all mice were sacrificed. Measured body weight and collected blood sample for each mouse. Weighed liver weight and saved a tiny piece of liver into 4% paraformaldehyde (PFA) fixation solution for further analysis. At same time, take the photos with heart, lung, aortas and two kidneys.
# 1. Sacrificed the mice and dissected the heart, aorta, and arteries under dissecting microscope.
# 4. Stain with freshly prepared Oil Red O working solution 10 min. • 1). Oil red O stock stain: 0.5% powder in isopropanol • 2). Working solution: dilute with distilled water (3:2) and filter with membrane (0.22 um)
# Scanning the glasses slides with the Aperio ScanScope system and analyze with the image proplus software to measure the area of atherosclerotic plaque lession. The results were expressed as the percentage of the total aortic surface area covered by lesions. The operation procedure of software was briefly described as follow: Converted the sys version photos into JPG version, then calibrated it and subsequently selected the red regions and then calculate the total area automatically by image proplus software.
# The results were expressed as the Mean±SEM and statistically evaluated by student's t-test.
# Area Percent (%)=Sum Area of Atherosclerotic Plaque (Mm^2)/Whole Area of Vascular Inner Wall (Mm^2)
# lung cancer cells = assay: KH mediums vs lung cancer cells, in-vitro well study; format: cell-based
# From the text: From which other companies in China have produced Human Albumin for use in the cell growth instead of feta bovine serum and also
# The above have been discovered in In-Vitro well study but not tested for CCK8 to measure the degree of inhibition of the cancer cells by each of the mediums. Such a study has been performed on Oct. 4, 2012 it is amazing to find out that all series of medium from KH100, KH200 and KH300 have different level of effect on the inhibition of the lung cancer, leukemia, gastric and breast both solid tumors and blood cancer have been tested.
compound,measurement,setting,value
"C[C@@H]1C[C@H]2[C@@H]3CCC4=CC(=O)C=C[C@]4(C)[C@@]3(F)[C@@H](O)C[C@]2(C)[C@@]1(O)C(=O)CO [Dex, Dexamethasone]",body weight compared with saline group,[1],reduction of body weight
"C=C1[C@H](CO)[C@@H](O)C[C@@H]1n1cnc2c(=O)[nH]c(N)nc21 [ETV, Entecavir]",HBV replication in plasma,HBV,significant inhibition
Nc1ccn([C@@H]2CS[C@H](CO)O2)c(=O)n1 [Lamivudine],EC50,HBV in HepG2.2.15,0.0062 µM
NC(=O)c1ncn([C@@H]2O[C@H](CO)[C@@H](O)[C@H]2O)n1 [Ribavirin],EC50,HCV 2a replicon,37.4 µM
same,EC50,HCV 1b replicon,39 µM
same,EC50,HCV 1a replicon,57.6 µM
APOA 1,"Animal Wounded, Total",atherosclerotic model; high dose 0.1 ml i.p.,1
same,"Animal Dead, Total","atherosclerotic model; high dose 0.1 ml i.p., reason: Fighting",1
same,"Animal Wounded, Total",atherosclerotic model; low dose,3
same,"Animal Dead, Total","atherosclerotic model; low dose, reasons: gastrorrhagia, urinary tract infection (2)",3
same,"Animal Wounded, Total",atherosclerotic model; mid dose 0.075 ml i.p.,1
same,"Animal Dead, Total","atherosclerotic model; mid dose 0.075 ml i.p., reason: Fighting",1
bovine human albumin: animal protein product,effect on lung cancer cells,lung cancer cells,inhibited lung cancer cell growth
